{"source": "patent US9351983B2", "about": "“Use of glycerophosphoinositols for the treatment of septic shock” (CONSIGLIO NAZIONALE DELLE RICERCHE, priority 2012, dated 2016)", "key": {"[1]": {"test_system": "inhibitor of kB, α (IκB-α) gene expression", "experiment": "In vitro model of human inflammation: real-time PCR of IκB-α", "format": "cell-based", "settings": "300 μM; 4 h, 14 h, 24 h, 48 h; one donor, preliminary", "procedure": "(§1) FIG. 15—Glycerophosphoinositol modulates the kinetic transcriptional profile of genes involved in the regulation of inflammatory response. Human monocytes were purified from one donor and treated according to the in vitro model of human inflammation, previously described, in absence (blue line) or in presence (red line) of 300 μM glycerophosphoinositol. In detail glycerophosphoinositol was added to cells in culture 20 minutes before LPS, IL-10 and TGF-β, that is, again after each wash. Samples were collected at time 4 h, 14 h, 24 h, 48 h; freshly isolated monocytes have been considered as control at time 0 h. Total RNA was extracted from cells by RNeasy kit (Qiagen) and reverse-transcribed to cDNA (QuantiTect Reverse Transcription kit, Qiagen). […] Each sample was measured in triplicate and data were analyzed with Pfaffl methods for comparing relative expression data. The measurement of mRNA expression was expressed as fold-increase over control (time 0 h). […]\n(§2) Total RNA was extracted with RNeasy kit (Qiagen) according to the manufacturer's instructions. Both integrity and quality of total RNA were checked by agarose gel electrophoresis and the concentration of each RNA sample was assessed spectrophotometrically. Total RNAs were reverse-transcribed to cDNA (QuantiTect Reverse Transcription kit, Qiagen) with oligo-dT and random primers, according to manufacturer's protocol. […]"}, "[2]": {"test_system": "phospholipase A2IVα (PLA2IVα) gene expression", "experiment": "In vitro model of human inflammation: real-time PCR of PLA2IVα", "format": "cell-based", "settings": "300 μM; 4 h, 14 h, 24 h, 48 h; effect mainly at 4 h and 14 h; one donor, preliminary", "procedure": "as §1, §2"}, "[3]": {"test_system": "TNFα", "experiment": "ELISA of TNFα in medium of LPS-stimulated monocytes", "format": "cell-based, human", "settings": "300 μM", "procedure": "FIG. 5—The inhibitory effects of GroPIns are also evident at the protein expression level. Purified monocytes (4×10^3 cells/sample) were pre-incubated for 20 min at 37° C. in the absence and presence of 300 μM GroPIns, and then for a further 5 h and 24 h without or with 0.1 μg/ml LPS from E. coli. At the end of this incubation, the levels of TNFα, IL-1β and TxB-2 in the medium were assessed by ELISA. In monocytes alone, the protein concentrations were under the assay detection limits at both the times. The data are representative of three independent experiments performed with cells from different donors. Exposure of monocytes to LPS induced a time-dependent increase in the […] levels of all of the cytokines analysed.\nCellular levels of TNFα, IL-1β and TxB-2 were quantified by enzyme-linked immunosorbent assay (ELISA). Conditioned medium from monocytes was sedimented by centrifugation at 300×g at room temperature for 10 min to eliminate cellular debris. Then, the supernatant was recovered and the concentrations of TNFα, IL-1β and TxB-2 were assessed by ELISA, as specified by the manufacturers (Amersham Pharmacia Biotech (NJ, USA)."}}}
{"molecule": "O=P(O)(OCC(O)CO)OC1C(O)C(O)C(O)C(O)C1O", "note": "(stereo not shown) [GroPIns, glycerophosphoinositol]", "values": [{"measurement": "IκB-α mRNA expression", "setting": "[1]", "result": "affected the expression of IκB-α"}, {"measurement": "PLA2IVα mRNA expression", "setting": "[2]", "result": "hampered the expression"}, {"measurement": "level of TNFα in the medium", "setting": "[3]; 0.1 μg/ml LPS for 5 h", "result": "very small effects"}, {"measurement": "level of TNFα in the medium", "setting": "[3]; 0.1 μg/ml LPS for 24 h", "result": "significantly reduced"}]}
